Patent publication US7745489B2, “Compositions and methods for inhibition of phospholipase A2 mediated inflammation” (The Regents of the University of California, priority 2002, dated 2010)
“Also recorded” adds a separate entry of the source.

Biological target: T1, cPLA2 (Homo sapiens, UniProt P47712)
T1 sequence (P47712 1-749): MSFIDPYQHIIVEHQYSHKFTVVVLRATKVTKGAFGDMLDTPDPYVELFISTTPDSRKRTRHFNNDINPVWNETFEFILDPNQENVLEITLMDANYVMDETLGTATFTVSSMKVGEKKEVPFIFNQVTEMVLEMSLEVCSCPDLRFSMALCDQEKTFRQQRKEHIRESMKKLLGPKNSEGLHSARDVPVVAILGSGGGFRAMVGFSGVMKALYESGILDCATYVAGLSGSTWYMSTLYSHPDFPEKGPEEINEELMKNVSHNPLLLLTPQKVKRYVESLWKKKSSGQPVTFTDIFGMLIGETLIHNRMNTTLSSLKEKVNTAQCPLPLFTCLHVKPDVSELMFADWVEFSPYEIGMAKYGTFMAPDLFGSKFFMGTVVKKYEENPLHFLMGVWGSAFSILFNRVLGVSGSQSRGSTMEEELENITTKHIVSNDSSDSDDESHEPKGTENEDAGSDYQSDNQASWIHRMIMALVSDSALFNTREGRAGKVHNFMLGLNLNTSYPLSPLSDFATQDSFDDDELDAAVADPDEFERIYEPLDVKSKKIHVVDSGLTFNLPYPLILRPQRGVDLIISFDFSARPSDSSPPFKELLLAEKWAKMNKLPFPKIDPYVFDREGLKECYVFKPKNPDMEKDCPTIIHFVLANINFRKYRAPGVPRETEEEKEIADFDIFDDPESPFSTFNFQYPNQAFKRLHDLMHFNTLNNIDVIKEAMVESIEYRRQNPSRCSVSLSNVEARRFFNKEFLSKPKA
Assay: cPLA2 activity on TX-100/PAPC mixed micelles, inhibition by 2-oxoamides
Format: biochemical
Conditions: for Inhibition of cPLA2: result in words; for XI(50) (mole fraction) / Highest Conc. (mole fraction) w/ % inhibition: Table 2, iPLA2; for Highest Conc. (mole fraction) w/ % inhibition: at 0.091 mole fraction; for XI(50): mixed micelles TX-100 400 μM, PAPC 97 μM, PIP2 3 μM (0.6 mole %); for Inhibitory potency relative to OA4 (fold less potent): cPLA2, compared with OA4

SMILES | Inhibition of cPLA2 | XI(50) (mole fraction) | further results
CCCCCCCCCCC(=O)C(=O)N[C@@H](CCC(=O)O)COC(=O)NCC [OA30, 5-ethylcarbamoyloxy-4-(S)-(2-oxo-dodecanoylamino)-pentanoic Acid] | does not inhibit; also recorded: essentially no measurable inhibition | – | –
CCCCCCCCCCCCCC(=O)C(=O)N[C@H](CCC(=O)O)CC(C)C [OA12, (4R)-6-Methyl-4-(2-oxo-pentadecanoylamino)-heptanoic Acid] | – | 0.017 ± 0.006 | –
CCCCCCCCCCC(=O)C(=O)N[C@H](CCC(=O)O)CC(C)C [OA13, (4R)-6-Methyl-4-(2-oxo-dodecanoylamino)-heptanoic Acid] | – | 0.033 ± 0.013 | –
CCCCCCCCCCCCCC(=O)C(=O)N1CCCC1CCC(=O)O (stereo not shown) [OA18, 3-[1-(2-Oxo-pentadecanoyl)-pyrrolidin-2-yl]propionic Acid] | – | – | Highest Conc. (mole fraction) w/ % inhibition: 0.091; 24%
CCCCCCCCCCC(=O)C(=O)N[C@H](CCC(=O)O)C(=O)NCC [OA31, 4-Ethylcarbamoyl-4-(R)-(2-oxo-dodecanoylamino)-butyric Acid] | essentially no measurable inhibition | – | –
O=C(O)CCCNC(=O)C(=O)CCCCc1ccccc1 [OA35, 4-(2-Oxo-6-phenyl-hexanoylamino)-butyric Acid] | lack of inhibition | – | –
CCCCCCCCCCC(=O)C(=O)N[C@H](CCCC)CCC(=O)O [OA7, (4R)-4-[(2-Oxododecanoyl)amino]octanoic acid] | – | 0.068 ± 0.005 | XI(50): 0.068±0.005 mole fraction
CCCCCCCCCCC(=O)C(=O)N[C@H](CCC(=O)O)COC(=O)NCC [OA32, 5-ethylcarbamoyloxy-4-(R)-(2-oxo-dodecanoylamino)-pentanoic Acid] | essentially no measurable inhibition | – | –
O=C(O)CCCNC(=O)C(=O)CCCc1ccccc1 [OA36, 4-(2-Oxo-5-phenyl-pentanoylamino)-butyric Acid] | lack of inhibition | – | –
CCCCCCCCCCCCCCC(=O)C(=O)N[C@@H](CCC(=O)O)C(=O)NCCCCCCCCCC [OA15, 4-Decylcarbamoyl-4-(S)-(2-oxo-hexadecanoylamino)-butyric Acid] | moderate level of inhibition | 0.044 ± 0.007 | –
CCCCCCCCCCCCCC(=O)C(=O)N[C@@H](CCCC)CC(=O)O [OA3, (3S)-(2-Oxo-pentadecanoylamino)-heptanoic Acid] | – | 0.027 ± 0.004 | Inhibitory potency relative to OA4 (fold less potent): around 3 fold
CCCCCCCCCCC(=O)C(=O)N[C@@H](CCC(=O)O)COC(=O)NCCCCCCCC [OA16, 5-octylcarbamoyloxy-4-(S)-(2-oxo-dodecanoylamino)-pentanoic Acid] | essentially no measurable inhibition | – | Highest Conc. (mole fraction) w/ % inhibition: 0.091, 60%
CCCCCCCCCCC(=O)C(=O)N[C@@H](CCCC)CCCCC(=O)O [OA6, (6S)-6-(2-Oxo-dodecanoylamino)-decanoic Acid] | – | 0.018 ± 0.009 | Inhibitory potency relative to OA4 (fold less potent): around 2 fold
CCCCCCCCCCC(=O)C(=O)N[C@@H](CCC(=O)O)C(=O)NCC [OA29, 4-Ethylcarbamoyl-4-(S)-(2-oxo-dodecanoylamino)-butyric Acid] | did not inhibit; also recorded: essentially no measurable inhibition | – | –
CCOC[C@H](CCC(=O)O)NC(=O)C(=O)CC [OA10] | – | 0.045 ± 0.007 | XI(50): 0.045±0.007 mole fraction
CCCCCCCCCCCCCC(=O)C(=O)N[C@H](CCC(=O)O)Cc1ccccc1 [OA9, (4R)-4-(2-Oxo-pentadecanoylamino)-5-phenyl-pentanoic Acid] | – | 0.035 ± 0.016 | –
CCCCCCCCCCCCCC(=O)C(=O)N[C@@H](CCCC)CCCC(=O)O [OA5, (5S)-5-(2-Oxopentadecanoylamino)-nonanoic Acid] | – | 0.008 ± 0.003 | Inhibitory potency relative to OA4 (fold less potent): essentially equivalent
COC(=O)CCCNC(=O)C(=O)CCCc1ccccc1 [OA34] | do not inhibit | – | –
